Test results from patent US12479794B2, “Acetophenone oxime compound and application thereof” (Medshine Discovery Inc., priority 2020, dated 2025).

Assays:
S1P1 = molecular target: T1, S1P1 (Homo sapiens, UniProt P21453); assay: In vitro agonistic activity on S1P1, U2OS-EDG1 cells, LiveBLAzer FRET B/G; type: cell-based
T1 construct: host or cells: U2OS
Procedure: Assay Example 1: In Vitro Evaluation of the Agonistic Activity of the Compounds of the Present Disclosure on S1P1
Object of the assay: To detect the agonistic activity of compounds on S1P1
• 1. Cells U2OS-EDG1 (Batch No.: Invitrogen-K1520) were taken out of a liquid nitrogen tank and placed in a 37° C. water bath to thaw quickly; • 2. The cell suspension was aspirated into a 15 ml centrifuge tube, resuspended in 5 ml of preheated medium, and centrifuged at 1000 rpm for 5 min; • 3. The supernatant was discarded. The cells were resuspended in 10 ml of medium, transferred into a T75 culture flask, and cultivated in an incubator with 5% CO2 at 37° C. II. Agonist Assay • 1. The compounds were diluted to working concentrations, and serially diluted 3-fold by Echo 555 (manufacturer: Labcyte) to obtain 10 concentrations; 200 nL of each concentration of the compound was transferred to a cell plate and centrifuged at 1000 rpm for 15 seconds; • 2. Culture medium was aspirated from the culture flask; 4 mL of Dulbecco's phosphate buffer (DPBS, supplier: Coring, item No.: 21-031-CVR, batch No.: 03318006) was added, and the residual serum was washed away; 2 mL of trypsin was added; The mixture was incubated in an incubator at 37° C. for 2 min, and the cells were digested; 10 mL of seeding medium was added to resuspend the cells; 0.6 mL of cell suspension was taken out and counted; • 3. The density of cells was adjusted to 1.88E+05 cells/mL using seeding medium, with 40 μL per well (7500\well); 40 μL of FreeStyle™ Expression medium was added around the cell plate; The plate was let stand at room temperature for 15 min and incubated at 37° C. with 5% CO2 for 20 hours. III. Signal Detection • 1. LiveBLAzer™-FRET B/G Substrate (CCF4-AM) assay reagents were formulated according to the instructions; • 2. 8 μL of 6×Substrate Mixture was added to each well of the cell plate; The plate was centrifuged at 1000 rpm for 15 seconds, covered with a film, and incubated at 23° C. for 2 hours; The cell plate was subjected to Envision […] detection. IV. Data Analysis • 1. The raw data were converted into % Effect by using an equation, and the EC50 value can be obtained by curve fitting with four parameters [“log(agonist) vs. response—Variable slope” model in GraphPad Prism]; • 2. Calculation formula: Ratio=(460 nm−blank)/(535 nm−blank) % Effect=(SampleRatio−Ave LCRatio)/(Ave HCRatio−Ave LCRatio)×100%

[1] = Metabolite identification after incubation in human liver microsomes with NADPH; type: in vitro ADME; conditions: 10 μM, 37° C., 1 hour
Procedure: (§1) Assay Example 4: Analysis and Identification of Metabolites of the Compound in Human Liver Microsome and Hepatocyte Incubation System
(§2) By using high-resolution mass spectrometry, the metabolite produced by the incubation of compound 32B in human liver microsomes and human hepatocytes was found, and identified for its structure; the percentage content of compound 32B and its metabolite was calculated by using LC-UV; and the possible biotransformation pathway of compound 32B in human liver microsomes and human hepatocytes in vitro was studied.
Compound 32B (10 μM) was incubated in a system containing both of human liver microsomes and NADPH at 37° C. for 60 min. 7-ethoxycoumarin (7-EC, 10 μM) was used as a positive control to evaluate the enzymatic metabolic activity in the liver microsome incubation system. The incubated sample was analyzed by LC-UV-HRMS. The structure of each metabolite was resolved and identified based on its primary and secondary mass spectrometry signals and/or comparison with a standard. The relative percentage of the UV-integrated peak area of each metabolite was given through data collected from the sample by LC-UV-HRMS, and the possible structure of the metabolite and its possible metabolic pathway in various genera of liver microsomes were inferred from the mass spectrometry information of the metabolite.

[2] = Metabolite identification after incubation in human hepatocytes; type: in vitro ADME; conditions: 10 μM, 37° C., 2 hours
Procedure: as §1, §2
Compound 32B (10 μM) was incubated in mouse, rat, canine, monkey, and human hepatocyte systems at 37° C. for 120 min. 7-ethoxycoumarin (7-EC, 30 μM) was used as a positive control to evaluate the enzymatic metabolic activity in the hepatocyte incubation system. The incubated sample was analyzed by LC-UV-MS. The structure of each metabolite was resolved and identified based on its primary and secondary mass spectrometry signals and/or comparison with a standard. The relative percentage of the UV-integrated peak area of each metabolite was given through data collected from the sample by HPLC-UV-MS, and the possible structure of the metabolite and its possible metabolic pathway in various genera of hepatocytes were inferred from the mass spectrometry information of the metabolite.

T1 sequence (P21453 whole entry): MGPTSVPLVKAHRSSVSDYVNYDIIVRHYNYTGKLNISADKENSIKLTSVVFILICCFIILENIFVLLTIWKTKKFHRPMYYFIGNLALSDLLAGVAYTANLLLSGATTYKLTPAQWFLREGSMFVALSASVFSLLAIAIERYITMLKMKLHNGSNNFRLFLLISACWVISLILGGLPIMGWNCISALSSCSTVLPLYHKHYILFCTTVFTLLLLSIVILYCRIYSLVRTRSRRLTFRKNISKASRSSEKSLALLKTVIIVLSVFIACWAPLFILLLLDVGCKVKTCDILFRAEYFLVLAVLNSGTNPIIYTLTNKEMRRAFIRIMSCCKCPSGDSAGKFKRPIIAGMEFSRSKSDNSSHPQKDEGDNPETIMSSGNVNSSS

EC50 (S1P1): 1.15 nM
Emax of agonistic activity on S1P1 (S1P1; % Effect): nM, 103.4%
Metabolites detected [1]: no other metabolite was detected
Relative abundance of the original drug [1]: 100.00%
Metabolites detected [2]: no other metabolite was detected
Relative abundance of the original drug [2]: 100.00%
SMILES: CC(=NOCc1ccc(OC(C)C)c(C(F)(F)F)c1)c1ccc2c(c1)CCC2N1CC(C(=O)O)C1 (single isomer, unassigned) [Compound 32B]
